Reference: patent publication US20150164884A1, “HCV COMBINATION THERAPY” (Boehringer Ingelheim International GmbH, priority 2009, published 2015)
Values after ≈ are worked out from the molar mass of the structure shown. Counter-ions that a name gives are not always drawn. Like-named read-outs stand apart in the source and are kept apart here.

Experiments:
[1] = Solubility of Compound (1) forms in non-aqueous excipients (HPLC of filtrate); format: physicochemical; conditions: room temperature, up to 4 days
Experimental: (§1) The solubility of Compound (1), as either Type A or the sodium salt form, was investigated in various non-aqueous solvents. The solutions were prepared by addition of excess Compound (1) to 0.25 ml to 1.0 ml of excipient in amber screw cap vials with Teflon lined caps. The samples were allowed to rotate at room temperature for up to 4 days. Sampling was done by centrifuging (14,000 rpm on the Eppendorf model 5415C table top centrifuge) and filtering through a 0.45 μm PVDF filter. The filtrate was subject to HPLC analysis for determining the solubility. HPLC analysis was conducted with an to Agilent 1100 using gradient or isocratic conditions. Both methods used acetonitrile/water (each with 0.1% Triflouroacetic Acid) and an ACE C-18 stationary phase with column heating maintained at 40-45° C. The wavelength of detection was set at 220 nm or 264 nm Wet solids were collected and analyzed for form change (stability) by XRPD.

[2] = Form change (stability) study of slurried solids by XRPD; format: physicochemical; conditions: slurried in either ethanol or propylene glycol
Experimental: as §1
XRPD analyses for the form change studies were conducted on a Bruker AXS X-Ray Powder Diffractometer Model D8 Discover or D8 Advance, available from Bruker AXS, Inc. of Madison, Wis., using CuKα radiation. The tube power was set to either 40 kV and 40 mA or 40 kV and 30 mA. […]

| Solubility ([1]; excipient Capmul MCM) [mg/mL] | Solubility ([1]; excipient Capmul PG8) [mg/mL] | Solubility ([1]; excipient Ethanol) [mg/mL] | Solubility ([1]; excipient Labrasol) [mg/mL] | Solubility ([1]; excipient PEG 400) [mg/mL] | Solubility ([1]; excipient Transcutol P) [mg/mL] | Form stability (change in XRPD pattern of remaining solid phase) ([2]; listed as Type A form of Compound (1)) | Solubility ([1]; Capmul MCM (non-aqueous excipient), oil or lipid, thermodynamic from solid, excipient Capmul MCM, read-out: Solubility) [mg/mL] | Solubility ([1]; Capmul PG8 (non-aqueous excipient), oil or lipid, thermodynamic from solid, excipient Capmul PG8, read-out: Solubility) [mg/mL] | Solubility ([1]; Labrasol (non-aqueous excipient), oil or lipid, thermodynamic from solid, excipient Labrasol, read-out: Solubility) [mg/mL] | Solubility ([1]; PEG 400 (non-aqueous excipient), organic solvent or mixture, thermodynamic from solid, excipient PEG 400, read-out: Solubility) [mg/mL] | Solubility ([1]; propylene glycol (non-aqueous excipient), organic solvent or mixture, thermodynamic from solid, excipient Propylene Glycol, read-out: Solubility) [mg/mL] | Form stability (change in XRPD pattern of remaining solid phase) ([2]; listed as crystalline sodium salt form of Compound (1)) | Compound |
| --- | --- | --- | --- | --- | --- | --- | --- | --- | --- | --- | --- | --- | --- |
| 220.6 ± 7.4 (≈ 254 mM) | 172.6 ± 8.3 (≈ 198 mM) | 0.9 ± 0.1 (≈ 1.03 mM) | 146.7 ± 5.1 (≈ 169 mM) | 136.8 ± 3.2 (≈ 157 mM) | 24.3 ± 0.3 (≈ 27.9 mM) | clear form change | – | – | – | – | – | – | C=C[C@@H]1C[C@]1(NC(=O)[C@@H]1C[C@H](Oc2cc(-c3csc(NC(=O)C(C)C)n3)nc3c(Br)c(OC)ccc23)CN1C(=O)[C@@H](NC(=O)OC1CCCC1)C(C)(C)C)C(=O)O [Type A of Compound (1)] |
| – | – | 187.0 ± 23.9 | – | – | 430.6 ± 14.7 | – | 262.5 ± 2.6 | < 169 | 175 ± 11.8 | 234 ± 34 | > 468 | no change in the XRPD pattern | C=C[C@@H]1C[C@]1(NC(=O)[C@@H]1C[C@H](Oc2cc(-c3csc(NC(=O)C(C)C)n3)nc3c(Br)c(OC)ccc23)CN1C(=O)[C@@H](NC(=O)OC1CCCC1)C(C)(C)C)C(=O)O [Compound (1) Na salt] |
